Data as given in patent US4220577A, “Iodopropargyl pyridyl and picolinyl ethers and thioethers as paint fungicides” (Givaudan Corporation, priority 1979, dated 1980).
Values after ≈ are worked out from the molar mass of the structure shown.

Experiments:
mildew = assay: Outdoor field test of painted pine panels; details: .5%
Excerpt: A number of the compounds were field tested in various latex paints. Pine panels (6"×12"×1/2") were given two coats of paint and, after drying, were exposed at an outdoor location subject to high heat and humidity levels. Paints containing the novel componds of this invention were compared with those containing the commercial mecurial mildewcide phenyl mecuric acetate (PMA), a commercial non-mercurial mildewcide 2-n-octyl-4-isothiazolin-3-one and 3-iodo-2-propynyloxybenzene.

Aspergillus niger = assay: 5-fold serial dilution test in agar, MIC, F1; type: cell-based; details: 168 h, 28° C., seven days, read-out: Minimum Inhibitory Concentration Range
Description: (§1) Antibacterial and antifungal activity were evaluated by a 5-fold serial dilution test in agar. In this test, compounds were prepared as 6% solutions in dimethylformamide or ethanol. The 6% solution was then 5-fold serially diluted in test tubes to give the desired concentrations when mixed with agar and poured into sterile Petri dishes. Trypticase glucose extract agar was used for the bacterial testing; mildew glucose agar for the fungal testing. The bacterial plates were spot inoculated with 24-hour nutrient broth cultures and incubated at 37° C. for 48 hours. The fungal plates were spot inoculated with spore suspensions and incubated at 28° C. for seven days. At the end of the incubation periods, all plates were examined for growth. The minimum inhibitory concentration (MIC) for each organism is expressed in Table I. In the ranges presented, growth is observed only at the lower concentration.

Penicillium piscarium = assay: 5-fold serial dilution test in agar, MIC, F3; type: cell-based; details: 168 h, 28° C., seven days, read-out: Minimum Inhibitory Concentration Range
Description: as §1
F3 Penicillium piscarium

Staphylococcus aureus = assay: 5-fold serial dilution test in agar, MIC, B1; type: cell-based; details: 37° C., 48 hours, read-out: Minimum Inhibitory Concentration Range
Description: as §1
B1 Staphylococcus aureus

Bacillus subtilis = assay: 5-fold serial dilution test in agar, MIC, B5; type: cell-based; details: 37° C., 48 hours, read-out: Minimum Inhibitory Concentration Range
Description: as §1
B5 Bacillus subtilis 4 3 μg/ml

Aureobasidium pullulans = assay: 5-fold serial dilution test in agar, MIC, F4; type: cell-based; details: 168 h, 28° C., seven days, read-out: Minimum Inhibitory Concentration Range
Description: as §1
F4 Aureobasidium pullulans

Escherichia coli = assay: 5-fold serial dilution test in agar, MIC, B2; type: cell-based; details: 37° C., 48 hours, read-out: Minimum Inhibitory Concentration Range
Description: as §1

Aspergillus oryzae = assay: 5-fold serial dilution test in agar, MIC, F2; type: cell-based; details: 168 h, 28° C., seven days, read-out: Minimum Inhibitory Concentration Range
Description: as §1

Proteus vulgaris = assay: 5-fold serial dilution test in agar, MIC, B4; type: cell-based; details: 37° C., 48 hours, read-out: Minimum Inhibitory Concentration Range
Description: as §1

Pseudomonas aeruginosa = assay: 5-fold serial dilution test in agar, MIC, B3; type: cell-based; details: 37° C., 48 hours, read-out: Minimum Inhibitory Concentration Range
Description: as §1
B3 Pseudomonas aeruginosa

[1] = tested on: Aureobasidium pullulans (strain 1); assay: Antifungal activity on painted surfaces, strain 1; type: cell-based; parameters: key to Surface Growth: 0: No growth; 1: Slight growth; 2: Moderate growth; 3: Heavy growth; details: Strain 1, three weeks
Description: (§2) Any antifungal agent which can be used to prevent mildew on painted surfaces must be effective against Aureobasidium pullulans, the organism which is primarily responsible for mildew on painted surfaces. The effectiveness of the novel compounds was tested by incorporating the compound into an exterior latex paint, applying the paint to a surface, and testing the ability of the painted surface to prevent the growth of Aureobasidium pullulans. The tests were run as described below. The novel compounds were incorporated into an exterior vinyl acetate latex paint by mulling the compound into the paint. The compounds were tested in the paints at levels of 0.25% and 0.5%. One coat of this paint was applied to each side of a piece of Whatman #30 filter paper. Two one-inch squares were cut from the filter paper. Each square was centered on the agar surface of separate Petri dishes containing malt agar. One square was inoculated with a suspension of Aureobasidium pullulans (strain 1) which was an in-house strain used for routine antimicrobial testing. The second square was inoculated with a suspension of Aureobasidium pullulans (strain 2) which was grown from a culture obtained from the surface of a mildew infested panel. Squares painted with the same exterior vinyl acetate latex paint, but without the novel compounds of this invention, were run in parallel. The Petri dishes were then incubated at 27° C. and at greater than 90% humidity for a three week period and observed for zones of inhibition and surface growth.

[2] = tested on: Aureobasidium pullulans (strain 2); assay: Antifungal activity on painted surfaces, strain 2; type: cell-based; parameters: key to Surface Growth: 0: No growth; 1: Slight growth; 2: Moderate growth; 3: Heavy growth; details: Strain 2, three weeks
Description: as §2

[3] = 0.25% in vinyl acetate latex paint
[4] = 0.5% in vinyl acetate latex paint

Structure (SMILES) | MIC (Aspergillus niger) [µg/mL] | MIC (Penicillium piscarium) [µg/mL] | MIC (Staphylococcus aureus) [µg/mL] | MIC (Bacillus subtilis) [µg/mL] | MIC (Aureobasidium pullulans) [µg/mL] | MIC (Escherichia coli) [µg/mL] | MIC (Aspergillus oryzae) [µg/mL] | MIC (Proteus vulgaris) [µg/mL] | MIC (Pseudomonas aeruginosa) [µg/mL] | Panel Scoring (mildew; Paint B (Acrylic latex-alkyd modified), month 5) | Panel Scoring (mildew; Paint B (Acrylic latex-alkyd modified), month 6) | Panel Scoring (mildew; Paint A (Vinyl acetate latex), month 4) | Surface Growth [1, 3] | Zone of Inhibition [1, 3] | Surface Growth [1, 4] | Zone of Inhibition [1, 4] | Surface Growth [2, 3] | Zone of Inhibition [2, 3] | Surface Growth [2, 4] | Zone of Inhibition [2, 4]
IC#CCOc1cccnc1 [Compound 1, 3-(3-iodo-2-propynyloxy)pyridine] | – | – | – | – | – | – | – | – | – | 8 | 8 | – | – | – | – | – | – | – | – | –
CCCCCCCCn1sccc1=O [II, 2-n-octyl-4-isothiazolin-3-one, reference compound] | – | – | – | – | – | – | – | – | – | – | – | 8 | – | – | – | – | – | – | – | –
IC#CCSc1cccnc1 [drawing 7] | 15 to 76 (≈ 54.5 to 276 µM) | 0.12 to 0.6 (≈ 0.436 to 2.18 µM) | > 1920 | > 1920 | 0.12 to 0.6 (≈ 0.436 to 2.18 µM) | > 1920 | < 0.03 | > 1920 | > 1920 | – | – | – | – | – | – | – | – | – | – | –
IC#CCSc1ccncc1 [drawing 10] | < 0.03 | 0.12 to 0.6 (≈ 0.436 to 2.18 µM) | 384 to 1920 (≈ 1400 to 6980 µM) | 76 to 384 (≈ 276 to 1400 µM) | 0.12 to 0.6 (≈ 0.436 to 2.18 µM) | > 1920 | 0.12 to 0.6 (≈ 0.436 to 2.18 µM) | 384 to 1920 (≈ 1400 to 6980 µM) | > 1920 | – | – | – | – | – | – | – | – | – | – | –
IC#CCOc1cccnc1 [drawing 11] | – | – | – | – | – | – | – | – | – | – | – | – | 0 | 3 (11-15 mm) | 0 | 3 (11-15 mm) | – | – | – | –
Cc1ccc(OCC#CI)cn1 [drawing 12] | – | – | – | – | – | – | – | – | – | – | – | – | 0 | 2 (6-10 mm) | 0 | 2 (6-10 mm) | 0 | 1 (1-5 mm) | 0 | 2 (6-10 mm)
Clc1ncccc1OCC#CI [drawing 13] | – | – | – | – | – | – | – | – | – | – | – | – | 0 | 2 (6-10 mm) | 0 | 3 (11-15 mm) | 0 | 1 (1-5 mm) | 0 | 2 (6-10 mm)

Continued, in another order:

MIC (Aspergillus niger) [µg/mL] | MIC (Penicillium piscarium) [µg/mL] | MIC (Staphylococcus aureus) [µg/mL] | MIC (Bacillus subtilis) [µg/mL] | MIC (Aureobasidium pullulans) [µg/mL] | MIC (Escherichia coli) [µg/mL] | MIC (Aspergillus oryzae) [µg/mL] | MIC (Proteus vulgaris) [µg/mL] | MIC (Pseudomonas aeruginosa) [µg/mL] | Structure (SMILES) | Panel Scoring (mildew; Paint B (Acrylic latex-alkyd modified), month 5) | Panel Scoring (mildew; Paint B (Acrylic latex-alkyd modified), month 6) | Panel Scoring (mildew; Paint A (Vinyl acetate latex), month 4) | Surface Growth [1, 3] | Zone of Inhibition [1, 3] | Surface Growth [1, 4] | Zone of Inhibition [1, 4] | Surface Growth [2, 3] | Zone of Inhibition [2, 3] | Surface Growth [2, 4] | Zone of Inhibition [2, 4]
0.03 to 0.12 (≈ 0.116 to 0.463 µM) | 0.12 to 0.6 (≈ 0.463 to 2.32 µM) | 15 to 76 (≈ 57.9 to 293 µM) | 3 to 15 (≈ 11.6 to 57.9 µM) | 0.12 to 0.6 (≈ 0.463 to 2.32 µM) | 76 to 384 (≈ 293 to 1480 µM) | 0.12 to 0.6 (≈ 0.463 to 2.32 µM) | 3 to 15 (≈ 11.6 to 57.9 µM) | > 1920 | IC#CCOc1cccnc1 [drawing 2] | – | – | – | – | – | – | – | – | – | – | –
< 0.03 | 0.03 to 0.12 (≈ 0.11 to 0.439 µM) | > 1920 | > 1920 | < 0.03 | > 1920 | < 0.03 | > 1920 | > 1920 | Cc1ccc(OCC#CI)cn1 [drawing 3] | – | – | – | – | – | – | – | – | – | – | –
< 0.03 | 0.12 to 0.6 (≈ 0.409 to 2.04 µM) | 3 to 15 (≈ 10.2 to 51.1 µM) | 3 to 15 (≈ 10.2 to 51.1 µM) | 0.12 to 0.6 (≈ 0.409 to 2.04 µM) | 15 to 76 (≈ 51.1 to 259 µM) | 0.03 to 0.12 (≈ 0.102 to 0.409 µM) | 3 to 15 (≈ 10.2 to 51.1 µM) | > 1920 | Clc1ncccc1OCC#CI [drawing 4] | – | – | – | – | – | – | – | – | – | – | –
< 0.03 | 0.12 to 0.6 (≈ 0.39 to 1.95 µM) | 384 to 1920 (≈ 1250 to 6240 µM) | 15 to 76 (≈ 48.8 to 247 µM) | 0.03 to 0.12 (≈ 0.0976 to 0.39 µM) | > 1920 | 0.03 to 0.12 (≈ 0.0976 to 0.39 µM) | > 1920 | > 1920 | Cc1ccc(OCC#CI)c(Cl)n1 [drawing 5] | – | – | – | – | – | – | – | – | – | – | –
0.12 to 0.6 (≈ 0.438 to 2.19 µM) | 0.6 to 3 (≈ 2.19 to 10.9 µM) | 15 to 76 (≈ 54.7 to 277 µM) | 15 to 76 (≈ 54.7 to 277 µM) | 0.6 to 3 (≈ 2.19 to 10.9 µM) | 15 to 76 (≈ 54.7 to 277 µM) | 0.12 to 0.6 (≈ 0.438 to 2.19 µM) | 3 to 15 (≈ 10.9 to 54.7 µM) | 76 to 384 (≈ 277 to 1400 µM) | Nc1ncccc1OCC#CI [drawing 6] | – | – | – | – | – | – | – | – | – | – | –
0.03 to 0.12 (≈ 0.11 to 0.439 µM) | 0.12 to 0.6 (≈ 0.439 to 2.2 µM) | 76 to 384 (≈ 278 to 1410 µM) | 76 to 384 (≈ 278 to 1410 µM) | 0.6 to 3 (≈ 2.2 to 11 µM) | 76 to 384 (≈ 278 to 1410 µM) | 0.12 to 0.6 (≈ 0.439 to 2.2 µM) | 15 to 76 (≈ 54.9 to 278 µM) | > 1920 | IC#CCOCc1cccnc1 [drawing 8] | – | – | – | – | – | – | – | – | – | – | –
< 0.03 | 0.03 to 0.12 (≈ 0.116 to 0.463 µM) | 384 to 1920 (≈ 1480 to 7410 µM) | 3 to 15 (≈ 11.6 to 57.9 µM) | 0.12 to 0.6 (≈ 0.463 to 2.32 µM) | 384 to 1920 (≈ 1480 to 7410 µM) | 0.03 to 0.12 (≈ 0.116 to 0.463 µM) | 76 to 384 (≈ 293 to 1480 µM) | > 1920 | IC#CCOc1ccncc1 [drawing 9] | – | – | – | – | – | – | – | – | – | – | –
